Results on six molecules are retold here after patent US12466840B2, “Small molecule inhibitors of KRAS proteins” (Merck Sharp & Dohme LLC, priority 2023, dated 2025).

Common to all, as to assay type: biochemical
Holding throughout (conditions): TR-FRET, 60 min preincubation
In general terms: TR-FRET usually uses a lanthanide donor and a delayed reading to cut background.

One test addresses KRAS G13D (Homo sapiens (Human), UniProt P01116, G13D). The test can be described thus: SOS-catalyzed nucleotide exchange assay (GNE), KRAS G13D. From the text:
(§1) Procedure for SOS-Catalyzed Nucleotide Exchange Assay for KRAS-WT, G12C/D/V/A/R/S, G13D, Q61H, HRAS-WT, and NRAS-WT
(§2) Recombinant KRAS-G12C protein used in this assay has an additional triple mutation (C51S/C80L/C118S). Whereas KRAS-WT, G12D/V/A/S/R, G13D, Q61H, HRAS and NRAS are in context of their WT protein sequence background. Specifically, the SOS-catalyzed nucleotide exchange assay utilizes a preformed TR-FRET complex containing a specific biotinylated RAS protein (KRAS-WT, G12C/V/D/A/S/R, G13D, Q61H, HRAS-WT, NRAS-WT; described above) with Bodipy-GDP, and Terbium-streptavidin. Compounds are preincubated with this complex for 60 minutes. Subsequently, recombinant human SOS protein and unlabeled GTP are added to initiate the exchange reaction. Small molecule inhibitors stabilize the Bodipy-GDP complex whereas the untreated protein rapidly exchanges Bodipy-GDP for unlabeled GTP resulting in reduced TR-FRET signal.
(§3) To assemble the preformed TR-FRET complexes, each biotinylated RAS protein is diluted to 2 μM in an EDTA Buffer (20 mM HEPES pH 7.5, 50 mM sodium chloride, 10 mM EDTA, and 0.01% Tween) and incubated at room temperature for one hour. This mixture is then further diluted to 90 nM in an Assay Buffer (20 mM HEPES pH 7.5, 150 mM sodium chloride, 10 mM magnesium chloride, and 0.005% Tween) containing 15 nM of Terbium-Streptavidin (Invitrogen, catalog #PV3577) and 900 nM of Bodipy-GDP (Invitrogen, catalog #G22360) and incubated at room temperature for six hours. It should be noted that this preformed TR-FRET complex for each of the RAS protein were made ahead of time, aliquoted and stored at −80° C. until the day of the experiment.
(§4) Each test compound (10 mM stock in DMSO) is diluted in DMSO to make a final-10-point, 3-fold dilution and is acoustically dispensed into a 384-well assay plate (Corning, catalog #3820) using an Echo 550 (Labcyte). Each well of the assay plate receives 3 μL of a specific 3×RAS preformed TR-FRET complex and 3 μL of Assay Buffer and is incubated at room temperature for 60 minutes (preincubation time). Each well then receives 3 μL of 3× recombinant human SOS protein and GTP (Sigma, G8877) in Assay Buffer and is incubated at room temperature for 30 minutes (G13D), 60 minutes (KRAS WT/G12C/D, H/NRAS) or 90 minutes for G12A/R/S/V and Q61H. The final reaction in each well of 9 μL consists of 3 mM GTP, specific Ras and SOS proteins in the following concentrations: KRAS-G12C/SOS=3 nM/40 nM, KRAS-WT and G12D/SOS=1 nM/40 nM, KRAS-G12V/SOS=1.25 nM/160 nM, KRAS-G12A/S/SOS=1 nM/160 nM, KRAS-G12R/SOS=1 nM/320 nM, KRAS-Q61H/SOS=1 nM/320 nM, KRAS-G13D/SOS=1.25 nM/[…], HRAS-WT and NRAS-WT=1.25 nM/40 nM.
(§5) The time-resolved fluorescence resonance energy transfer (TR-FRET) signal is measured on an Envision (PerkinElmer) plate reader: Excitation filter=340 nm; emission1=495 nm; emission2=520 nm; dichroic mirror=D400/D505; delay time=[…]. The signal of each well is determined as the ratio of the emission at 520 nm to that at 495 nm. Percent effect of each well is determined after normalization to control wells containing DMSO (no effect) or a saturating concentration of inhibitor (max effect). The apparent effect as a function of compound concentration is fit to a four-parameter logistic equation.

For a further test, the target named is KRAS G12R (Homo sapiens (Human), UniProt P01116, G12R). The test can be described thus: SOS-catalyzed nucleotide exchange assay (GNE), KRAS G12R.
Source text: as §1, §2, §3, §4, §5

For a further test, the target named is KRAS Q61H (Homo sapiens (Human), UniProt P01116, Q61H). The test can be described thus: SOS-catalyzed nucleotide exchange assay (GNE), KRAS Q61H.
Source text: as §1, §2, §3, §4, §5

The target in another test is HRAS (Homo sapiens (Human), UniProt P01112). The test can be described thus: SOS-catalyzed nucleotide exchange assay (GNE), HRAS-WT.
Source text: as §1, §2, §3, §4, §5

KRAS G13D, sequence (P01116 other isoform, or with tags, fused parts or gaps G13D (already in the parent)): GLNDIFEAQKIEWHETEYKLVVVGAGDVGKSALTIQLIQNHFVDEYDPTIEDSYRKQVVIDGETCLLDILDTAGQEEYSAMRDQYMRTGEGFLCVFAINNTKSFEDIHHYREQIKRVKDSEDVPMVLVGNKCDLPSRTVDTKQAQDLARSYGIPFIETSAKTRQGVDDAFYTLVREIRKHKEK
HRAS, sequence (P01112 other isoform, or with tags, fused parts or gaps): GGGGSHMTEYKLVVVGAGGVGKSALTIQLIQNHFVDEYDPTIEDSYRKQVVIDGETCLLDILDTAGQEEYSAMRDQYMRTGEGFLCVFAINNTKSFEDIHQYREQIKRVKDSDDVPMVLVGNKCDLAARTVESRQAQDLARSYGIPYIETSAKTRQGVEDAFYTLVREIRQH
KRAS G12R, sequence (P01116 other isoform, or with tags, fused parts or gaps G12R (already in the parent)): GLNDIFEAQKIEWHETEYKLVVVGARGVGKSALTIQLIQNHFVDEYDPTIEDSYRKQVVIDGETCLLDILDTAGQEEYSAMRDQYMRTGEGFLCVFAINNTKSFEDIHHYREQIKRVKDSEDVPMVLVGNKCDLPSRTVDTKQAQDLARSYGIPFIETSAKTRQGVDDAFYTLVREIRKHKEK
KRAS Q61H, sequence (P01116 other isoform, or with tags, fused parts or gaps Q61H (already in the parent)): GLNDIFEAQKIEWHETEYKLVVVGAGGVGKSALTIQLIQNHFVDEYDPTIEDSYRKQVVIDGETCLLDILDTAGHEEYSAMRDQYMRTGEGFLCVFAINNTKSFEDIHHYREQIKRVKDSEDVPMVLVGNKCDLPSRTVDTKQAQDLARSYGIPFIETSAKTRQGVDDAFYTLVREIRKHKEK

Broadly, the IC50 is the concentration at which inhibition is half-maximal. Higher therefore signals a need for much substance. Consider `F/C=C1/CN2CCC[C@@]2(COc2nc3c4c(nc(-c5c(C6CC6)c(Cl)cc6[nH]ncc56)c(F)c4n2)OC[C@@H]2COCCCN32)C1` [Ex-1, (8aS)-5-(6-chloro-5-cyclopropyl-1H-indazol-4-yl)-4-fluoro-2-(((S,Z)-2-(fluoromethylene)tetrahydro-1H-pyrrolizin-7a(5H)-yl)methoxy)-8a,9,12,13-tetrahydro-8H,11H-7,10-dioxa-1,3,6,13a-tetraazanaphtho[1,8-ab]heptalene], for which the IC50 was 3.7 nM on KRAS G13D, less than 0.69 nM on KRAS G12R, 1.4 nM at KRAS Q61H and greater than 11100 nM at HRAS.
On the same counts, the results for `CCc1c(F)ccc2cc3[nH]ncc3c(-c3nc4c5c(nc(OC[C@@]67CCCN6C[C@H](F)C7)nc5c3F)N3CCCOC[C@H]3CO4)c12` [Ex-2, (8aS)-5-(5-ethyl-6-fluoro-1H-benzo[f]indazol-4-yl)-4-fluoro-2-(((2R,7aS)-2-fluorotetrahydro-1H-pyrrolizin-7a(5H)-yl)methoxy)-8a,9,12,13-tetrahydro-8H,11H-7,10-dioxa-1,3,6,13a-tetraazanaphtho[1,8-ab]heptalene] are 1 nM, less than 0.69 nM, 1.2 nM and 2740 nM.
For `CCc1c(F)ccc2cc3[nH]ncc3c(-c3nc4c5c(nc(OC[C@@]67CCCN6C/C(=C\F)C7)nc5c3F)N3CCCOC[C@H]3CO4)c12` [Ex-4, (8aS)-5-(5-ethyl-6-fluoro-1H-benzo[f]indazol-4-yl)-4-fluoro-2-(((S,Z)-2-(fluoromethylene)tetrahydro-1H-pyrrolizin-7a(5H)-yl)methoxy)-8a,9,12,13-tetrahydro-8H,11H-7,10-dioxa-1,3,6,13a-tetraazanaphtho[1,8-ab]heptalene] the same measures were 0.89 nM, less than 0.69 nM, 1 nM and 1270 nM.
On the same counts, the results for `F/C=C1\CN2CCC[C@@]2(COc2nc3c4c(nc(-c5c(C6(F)CC6)c(Cl)cc6[nH]ncc56)c(F)c4n2)OC[C@@H]2COCCCN32)C1` [Ex-5, (8aS)-5-(6-chloro-5-(1-fluorocyclopropyl)-1H-indazol-4-yl)-4-fluoro-2-(((S,Z)-2-(fluoromethylene)tetrahydro-1H-pyrrolizin-7a(5H)-yl)methoxy)-8a,9,12,13-tetrahydro-8H,11H-7,10-dioxa-1,3,6,13a-tetraazanaphtho[1,8-ab]heptalene] are 1.2 nM, 1.3 nM, 0.97 nM and 4680 nM.
In the case of `CCc1c(F)ccc2cc3[nH]nc(C)c3c(-c3nc4c5c(nc(OC[C@@]67CCCN6C[C@H](F)C7)nc5c3F)N3CCCOC[C@H]3CO4)c12` [Ex-6, (8aS)-5-(5-ethyl-6-fluoro-3-methyl-1H-benzo[f]indazol-4-yl)-4-fluoro-2-(((2R,7aS)-2-fluorotetrahydro-1H-pyrrolizin-7a(5H)-yl)methoxy)-8a,9,12,13-tetrahydro-8H,11H-7,10-dioxa-1,3,6,13a-tetraazanaphtho[1,8-ab]heptalene], the IC50 amounted to 1.9 nM against KRAS G13D, 1.2 nM at KRAS G12R, 1.8 nM against KRAS Q61H and 5520 nM at HRAS.
Regarding `CCc1c(F)ccc2cc3[nH]nc(C)c3c(-c3nc4c5c(nc(OC[C@@]67CCCN6C/C(=C\F)C7)nc5c3F)N3CCCOC[C@H]3CO4)c12` [Ex-7, (8aS)-5-(5-ethyl-6-fluoro-3-methyl-1H-benzo[f]indazol-4-yl)-4-fluoro-2-(((S,Z)-2-(fluoromethylene)tetrahydro-1H-pyrrolizin-7a(5H)-yl)methoxy)-8a,9,12,13-tetrahydro-8H,11H-7,10-dioxa-1,3,6,13a-tetraazanaphtho[1,8-ab]heptalene], the half-maximal inhibitory concentration (IC50) on KRAS G13D is 2.4 nM; on KRAS G12R, 1.3 nM; at KRAS Q61H, 2.8 nM; at HRAS, 2180 nM.
